# Values of other authors as cited in patent US20180140592A1, “5-CHLORO-4-HYDROXY-1-METHYL-2-OXO-N-PHENYL-1,2-DIHYDROQUINOLINE-3-CARBOXAMIDE, SALTS AND USES THEREOF” (Teva Pharmaceutical Industries, Ltd., priority 2010, published 2018).
# What was measured:
# [1] = system: acute experimental autoimmune encephalomyelitis (aEAE) model; settings: U.S. Pat. No. 6,077,851
# [2] = system: experimental inflammatory/autoimmune animal models; settings: EAE, DSS induced colitis, NOD mice, EAN, SLE and others
# [3] = system: relapsing MS; settings: Polman et al. 2005
structure (smiles),measurement,setting,value
"CCN(C(=O)c1c(O)c2c(Cl)cccc2n(C)c1=O)c1ccccc1 [Laquinimod, N-ethyl-N-phenyl-1,2-dihydro-4-hydroxy-5-chloro-1-methyl-2-oxoquinoline-3-carboxamide]",efficacy in the aEAE model,[1],effective
same,therapeutic effect in animal models,[2],demonstrated therapeutic effect
same,development of active MRI lesions,[3],reduce development of active MRI lesions
